Here are results for 40 molecules from ChEMBL document CHEMBL3507680, “University of Dundee, Gates Library screen for HepG2 cell viability”.

This data set is described as follows: Human HepG2 cell viability assay in 384 well format. It is filed as toxicity, cell-based. Details: dose 125 nL, time 70.5 hour; concentration not given beside the values. The note with it: HepG2 cells, read-out: Inhibition.
On to `Cc1nnc(N2C[C@H](OCCCn3cccn3)[C@H]3OCCC[C@H]32)s1`, for which the cytotoxicity at 70.5 h is -2.53%.

Take `Cc1ccc(N2CCCc3sc(C(=O)NCCO)nc32)nn1`: the cytotoxicity at 70.5 h is -1.7%.

`COCC(=O)N1CCC(c2nc3ccc(N4CCOCC4)cn3n2)CC1`: the cytotoxicity at 70.5 h was -2.79%.

For `CC(C)N(C)Cc1n[nH]c2c1CCN(C(=O)c1cc[nH]n1)C2`, the cytotoxicity at 70.5 h was determined as 21.5%.

`CCC(CC)C(=O)NCc1cnn(CC)c1`: the cytotoxicity at 70.5 h is -13.4%.

Consider `O=C(c1ccc(F)c(F)c1)N1CCN2CCCC2C1` (stereo not given), for which the cytotoxicity at 70.5 h worked out at 3.92%.

As for `Cc1cc(C(F)(F)F)nn1CCCNC(=O)C1CCC1`, the cytotoxicity at 70.5 h was -4.63%.

For the molecule `CCCN1CCN(C(=O)Cn2nc(C(F)(F)F)c(Br)c2C2CC2)CC1`, the cytotoxicity at 70.5 h was -6.28%.

For `CCN1CCN(C(=O)Cn2nc(C(F)(F)F)c(Br)c2C2CC2)CC1`, the cytotoxicity at 70.5 h was -7.97%.

Consider `O=C(CCn1cc(Cl)cn1)Nc1ccc2c(c1)OCCO2`, for which the cytotoxicity at 70.5 h is -8.19%.

Turning to `Cc1nn(Cc2ccc(C(=O)NC3CCS(=O)(=O)C3)cc2)c(C)c1Br` (stereo not given), the cytotoxicity at 70.5 h was 3.3%.

For the molecule `CC1CCCN(C(=O)c2ccn(COc3ccccc3)n2)C1` (stereo not given), the cytotoxicity at 70.5 h came to 12.9%.

Regarding `CC1CCN(C(=O)c2ccn(COc3ccccc3)n2)CC1`, the cytotoxicity at 70.5 h is -4.91%.

As to `Cc1ccccc1OCn1ccc(C(=O)NCCN2CCOCC2)n1`, the cytotoxicity at 70.5 h was -12.2%.

Consider `CC1CCCCN1C(=O)c1ccn(COc2ccc(F)cc2)n1` (stereo not given), for which the cytotoxicity at 70.5 h is -9.66%.

Regarding `O=C(NCCCN1CCOCC1)c1ccn(COc2ccc(Br)cc2)n1`, the cytotoxicity at 70.5 h amounted to 12.3%.

Regarding `Cc1ccc(NC(=O)C(C)n2ccc(C(F)(F)F)n2)nc1` (stereo not given), the cytotoxicity at 70.5 h was 1.64%.

With `Cc1cnc(NC(=O)C(C)n2ccc(C(F)(F)F)n2)s1` (stereo not given), the cytotoxicity at 70.5 h was -5.09%.

In the case of `CC(Oc1ccc2c(c1)OCO2)C(=O)Nc1ccon1` (stereo not given), the cytotoxicity at 70.5 h was -6.17%.

In the case of `COc1ccccc1N1CCN(C(=O)Cn2nc(C)c(Cl)c2C)CC1`, the cytotoxicity at 70.5 h is 11.3%.

For the molecule `Cc1cc(N2CCC(Cc3ccccc3)CC2)ncn1`, the cytotoxicity at 70.5 h is -11.5%.

With `CCn1cc(Cl)c(C(=O)NCCCN(C)C)n1`, the cytotoxicity at 70.5 h is -7.78%.

With `CCOCCCNC(=O)C(C)n1cc(Br)cn1` (stereo not given), the cytotoxicity at 70.5 h was 1.42%.

In the case of `CCN1CCN(C(=O)C(C)n2cc(Br)cn2)CC1` (stereo not given), the cytotoxicity at 70.5 h is -1.55%.

As to `CC(C(=O)N1CCN(c2ccccc2)CC1)n1cc(Br)cn1` (stereo not given), the cytotoxicity at 70.5 h is -2.65%.

As for `O=C(COc1ccc2c(c1)CCC2)NCc1ccco1`, the cytotoxicity at 70.5 h came to 23.9%.

With `CSc1[nH]nc(NC(=O)c2cccs2)c1C#N`, the cytotoxicity at 70.5 h is -10.4%.

For the molecule `CCN(Cc1nonc1C)C(=O)c1cc(C(F)(F)F)nn1C`, the cytotoxicity at 70.5 h was -7.63%.

For `CC(Cn1cc(Br)cn1)C(=O)Nc1ccc(Br)cn1` (stereo not given), the cytotoxicity at 70.5 h was 3.47%.

For `CC(Cn1cc(Br)cn1)C(=O)Nc1ccncc1` (stereo not given), the cytotoxicity at 70.5 h worked out at 6.88%.

Consider `Cc1cc(C(F)(F)F)nn1C(C)C(=O)Nc1ccc(Cl)cn1` (stereo not given), for which the cytotoxicity at 70.5 h is -6.74%.

`COc1ccc(C(C)NC(=O)c2nn(C)c(C)c2Br)cc1` (stereo not given): the cytotoxicity at 70.5 h was -2.4%.

As for `CCn1cc(Br)c(C(=O)NCc2ccc(F)cc2)n1`, the cytotoxicity at 70.5 h is 4.64%.

Turning to `CCCn1nccc1C(=O)Nc1nc(C)c(C)s1`, the cytotoxicity at 70.5 h turned out to be 11.9%.

Turning to `CCc1ccccc1NC(=O)CCc1cnn(C)c1`, the cytotoxicity at 70.5 h was -11.3%.

In the case of `CCn1ccc(-c2nnc(SCC(=O)Nc3ccc(C)cc3)n2CC)n1`, the cytotoxicity at 70.5 h was -13.9%.

As for `CCOCCCNC(=O)c1nc2c(s1)CCCN2c1ccc(C)nn1`, the cytotoxicity at 70.5 h is -7.8%.

On to `CN(C)C(=O)N1Cc2nnn(C)c2C(COCc2cccnc2)C1` (stereo not given), for which the cytotoxicity at 70.5 h is -2.6%.

Turning to `Cc1nnc(N2C[C@H](OCc3cccnc3)[C@H]3OCCC[C@H]32)s1`, the cytotoxicity at 70.5 h stood at 10%.

As for `Cc1nnc(N2C[C@H](OCc3ccncc3)[C@H]3OCCC[C@H]32)s1`, the cytotoxicity at 70.5 h is -4.47%.
